For one assay, the target named is FEN1 (Homo sapiens, UniProt P39748). In words: Nuclease inhibition assay, FEN1 (5′ flap fluorescent DNA substrate, gel readout). Format: biochemical. Particulars: 10 nM enzyme, 5 nM 5′ flap substrate, 15 min at 30° C. The source says: (§1) In vitro assays were used for the determination of compound's IC50 values for inhibition of individual nucleases, i.e., MUS81/EME1, FEN1, EXO1, and MRE11. To generate IC50 values, concentration of compound was plotted against relative nuclease activity (in %). The dose-response curves were generated from inhibition data, from 5 point serial dilutions of inhibitory compounds, each in triplicate and fitted to a standard sigmoid curve. IC50 values were derived by standard nonlinear regression analysis.
(§2) All tested compounds were diluted in 100% DMSO (dimethylsulfoxide) to prepare working stocks with different concentrations. To keep the DMSO concentration constant in every reaction, always 0.5 μl of the compound stock was added to the reaction buffer. The reaction buffer differs depending on the enzyme tested. Also concentration of the compounds in the reaction depends on the particular enzyme, since the inhibitory effect of the compounds vary between the enzymes. Nevertheless, always doubling dilutions in the range 200-0.8 μM was used. The compound was added as the first component in the reaction buffer, followed by the enzyme addition. […]
(§3) For this experiment we prepared short fluorescently labeled oligonucleotide-based DNA substrates with specific structures reflecting the biochemical activities of tested individual nucleases (Table 1). […] For visualization, each substrate was labeled by fluorescent dye (fluorescein), which can be detected in the gel using appropriate imaging system (FLA-9000, Fuji) with filters for particular wavelengths (excitation: 485 nm, emission: 535 nm).
(§4) Nuclease assays were performed in reaction buffer specific for particular enzyme: MUS81/EME1 (50 mM Tris pH=7.5, 5 mM MgCl2, 1 mM DTT a 100 μg/ml BSA), MRE11 (30 mM Bis-Tris pH=7.0, 50 μg/ml BSA, 1 mM DTT a 250 μM MnCl2), EXO1 and FEN1 (50 mM Tris pH=7.5, 1 mM MgCl2, 1 mM DTT a 100 μg/ml BSA). […] Fluorescently labeled DNA was detected by FLA-9000 scanner (Fuji) and the result was evaluated using Multi-Gauge V3.2 software (Fuji). […]

The next assay addresses T1, EXO1 (Homo sapiens, UniProt Q9UQ84).
T1 construct: made in house; host or cells: Escherichia coli BL21 (RIPL)
T1 sequence (Q9UQ84 1-846): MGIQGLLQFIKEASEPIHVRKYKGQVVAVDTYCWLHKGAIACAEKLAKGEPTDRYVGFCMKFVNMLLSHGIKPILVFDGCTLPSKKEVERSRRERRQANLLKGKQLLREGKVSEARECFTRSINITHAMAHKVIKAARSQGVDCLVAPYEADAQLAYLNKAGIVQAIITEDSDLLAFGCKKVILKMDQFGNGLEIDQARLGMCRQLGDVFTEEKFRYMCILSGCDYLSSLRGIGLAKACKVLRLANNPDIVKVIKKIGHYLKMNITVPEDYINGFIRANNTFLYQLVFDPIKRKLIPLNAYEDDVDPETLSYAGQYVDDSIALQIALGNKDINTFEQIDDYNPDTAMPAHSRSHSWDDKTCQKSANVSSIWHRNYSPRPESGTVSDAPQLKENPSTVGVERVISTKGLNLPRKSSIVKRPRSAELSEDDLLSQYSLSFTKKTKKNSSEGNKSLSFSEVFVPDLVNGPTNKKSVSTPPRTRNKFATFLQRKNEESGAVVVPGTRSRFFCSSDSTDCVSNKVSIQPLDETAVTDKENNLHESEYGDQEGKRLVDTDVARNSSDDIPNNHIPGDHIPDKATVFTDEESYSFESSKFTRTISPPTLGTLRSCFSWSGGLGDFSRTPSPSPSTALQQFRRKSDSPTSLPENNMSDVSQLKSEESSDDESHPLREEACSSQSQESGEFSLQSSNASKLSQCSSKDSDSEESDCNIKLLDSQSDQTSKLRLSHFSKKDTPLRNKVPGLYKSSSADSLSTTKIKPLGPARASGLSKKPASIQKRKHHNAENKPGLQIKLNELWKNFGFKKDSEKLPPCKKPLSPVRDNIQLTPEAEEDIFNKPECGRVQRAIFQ
Description: Nuclease inhibition assay, EXO1 (3′ OH fluorescent DNA substrate, gel readout). The class given is biochemical. Particulars: 5 nM enzyme, 5 nM 3′ OH substrate, 15 min at 30° C.
Text: as §1, §2, §3, §4

Structures are written as SMILES. Where only a bound is given, the exact number is not on record here.

FEN1, sequence (P39748 whole entry, species assumed): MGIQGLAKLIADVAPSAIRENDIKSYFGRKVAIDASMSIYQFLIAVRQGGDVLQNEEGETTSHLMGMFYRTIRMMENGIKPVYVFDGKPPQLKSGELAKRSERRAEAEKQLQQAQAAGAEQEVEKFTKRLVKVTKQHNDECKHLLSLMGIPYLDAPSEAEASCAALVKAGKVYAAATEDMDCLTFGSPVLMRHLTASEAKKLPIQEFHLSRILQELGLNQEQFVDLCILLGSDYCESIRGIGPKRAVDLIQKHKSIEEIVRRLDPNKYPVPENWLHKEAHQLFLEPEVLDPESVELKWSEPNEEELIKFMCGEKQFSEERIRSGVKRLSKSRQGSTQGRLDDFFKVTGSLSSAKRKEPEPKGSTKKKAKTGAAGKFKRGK

For the compound `Nc1c(-c2nc3ccccc3[nH]2)nnc2cc(-c3ccccc3)nn12` [Preparative Example 5C], the IC50 on FEN1 and at EXO1 was above 50 µM throughout.
As to `CCc1nn2c(N)c(-c3nc4ccccc4[nH]3)nnc2c1-c1ccc(F)cc1` [Preparative Example 5A], the IC50 against FEN1 and against EXO1 was above 50 µM in each case.
Turning to `Nc1c(-c2nc3ccccc3[nH]2)nnc2cc(-c3cccc4ccccc34)nn12` [Preparative Example 5K], the half-inhibitory concentration (IC50) against FEN1 and against EXO1 was above 50 µM in each case.

By IC50 is commonly meant the point on the concentration scale where inhibition reaches its midpoint. A lower IC50 goes with greater potency.

Source of the values: patent US9969741B2, “Pyrazolotriazines as inhibitors of nucleases” (MASARYKOVA UNIVERZITA, priority 2014, dated 2018).
